# Assay results taken from ChEMBL document CHEMBL1126778, “Adenosine A1 antagonists. 3. Structure-activity relationships on amelioration against scopolamine- or N6-((R)-phenylisopropyl)adenosine-induced cognitive disturbance” (J Med Chem, 1993).
# Legend:
# [1] = system: Rattus norvegicus; test: Acquisition time in Scopolamine induced avoidance test (performed in rat) for antagonistic activity after peroral administration of 20 mg/kg; format: functional; details: route oral
# [2] = system: Mus musculus; test: Retention time in (R)-PIA) induced avoidance test (performed in mice) for antagonistic activity after peroral administration of 0.31 mg/kg; format: functional, organism-based; parameters: dose 0.31 mg/kg
# [3] = system: Mus musculus; test: Retention time in (R)-PIA) induced avoidance test (performed in mice) for antagonistic activity after peroral administration of 0.02 mg/kg
# [4] = system: Mus musculus; test: Acquisition time in (R)-PIA) induced avoidance test (performed in mice) for antagonistic activity after p.o. administration of 1.25 mg/kg; format: functional; details: route oral
# [5] = target: T1, Adenosine receptor A1 (Bos taurus, UniProt P28190); test: Binding affinity towards Adenosine A1 receptor of bovine brain at 10e-5 M with [125I]-N6-aminobenzyladenosine
# T1 sequence (P28190 whole entry): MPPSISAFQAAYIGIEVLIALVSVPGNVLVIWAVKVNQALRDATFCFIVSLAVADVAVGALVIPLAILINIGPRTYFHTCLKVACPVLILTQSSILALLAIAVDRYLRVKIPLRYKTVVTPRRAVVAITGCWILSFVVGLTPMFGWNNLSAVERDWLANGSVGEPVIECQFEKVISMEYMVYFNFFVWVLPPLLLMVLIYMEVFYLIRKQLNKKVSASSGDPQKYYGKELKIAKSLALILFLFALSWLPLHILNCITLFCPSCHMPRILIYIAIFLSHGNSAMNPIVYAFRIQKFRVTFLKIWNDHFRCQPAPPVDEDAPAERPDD
# [6] = system: Mus musculus; test: Acquisition time in (R)-PIA) induced avoidance test (performed in mice) for antagonistic activity after peroral administration of 0.02 mg/kg; details: route oral
# [7] = system: Mus musculus; test: Acquisition time in (R)-PIA) induced avoidance test (performed in mice) for antagonistic activity after peroral administration of 5 mg/kg; format: functional; details: route oral
# [8] = system: Rattus norvegicus; test: Acquisition time in Scopolamine induced avoidance test (performed in rat) for antagonistic activity after peroral administration of 1.25 mg/kg; format: functional; details: route oral
# [9] = system: Rattus norvegicus; test: Retention time in Scopolamine induced avoidance test (performed in […]) for antagonistic activity after peroral administration of 5 mg/kg; format: functional, organism-based; parameters: dose 5 mg/kg
# [10] = system: Mus musculus; test: Retention time in (R)-PIA) induced avoidance test (performed in mice) for antagonistic activity after peroral administration of 5 mg/kg; format: functional, organism-based; parameters: dose 5 mg/kg
# [11] = system: Rattus norvegicus; test: Retention time in Scopolamine induced avoidance test (performed in rat) for antagonistic activity after peroral administration of 20 mg/kg; format: functional, organism-based; parameters: dose 20 mg/kg
# [12] = system: Mus musculus; test: Acquisition time in (R)-PIA) induced avoidance test (performed in mice) for antagonistic activity after peroral administration of 0.08 mg/kg; format: functional; details: route oral
# [13] = system: Mus musculus; test: Retention time in (R)-PIA) induced avoidance test (performed in mice) for antagonistic activity after p.o. administration of 1.25 mg/kg; format: functional, organism-based; parameters: dose 1.25 mg/kg
# [14] = target: Adenosine A2 receptor (Homo sapiens, UniProt P29275+P29274); test: Binding affinity towards Adenosine A2 receptor of human platelets with [125I]-N6-aminobenzyladenosine
# [15] = system: Rattus norvegicus; test: Acquisition time in Scopolamine induced avoidance test (performed in rat) for antagonistic activity after p.o. administration of 0.08 mg/kg; format: functional; details: route oral
# [16] = system: Rattus norvegicus; test: Retention time in Scopolamine induced avoidance test (performed in rat) for antagonistic activity after p.o. administration of 0.31 mg/kg; format: functional, organism-based; parameters: dose 0.31 mg/kg
# [17] = system: Rattus norvegicus; test: Retention time in Scopolamine induced avoidance test (performed in rat) for antagonistic activity after peroral administration of 1.25 mg/kg; format: functional, organism-based; parameters: dose 1.25 mg/kg
# [18] = system: Mus musculus; test: Acquisition time in (R)-PIA) induced avoidance test (performed in mice) for antagonistic activity after p.o. administration of 0.31 mg/kg; format: functional; details: route oral
# [19] = system: Rattus norvegicus; test: Acquisition time in Scopolamine induced avoidance test (performed in rat) for antagonistic activity after p.o. administration of 5 mg/kg; format: functional; details: route oral
# [20] = system: Rattus norvegicus; test: Retention time in Scopolamine induced avoidance test (performed in rat) for antagonistic activity after p.o. administration of 0.08 mg/kg; format: functional, organism-based; parameters: dose 0.08 mg/kg
# [21] = system: Mus musculus; test: Retention time in (R)-PIA) induced avoidance test (performed in mice) for antagonistic activity after peroral administration of 0.08 mg/kg; format: functional, organism-based; parameters: dose 0.08 mg/kg
# [22] = system: Rattus norvegicus; test: Acquisition time in Scopolamine induced avoidance test (performed in rat) for antagonistic activity after p.o. administration of 0.31 mg/kg; format: functional; details: route oral
smiles,measurement,setting,value
CCCn1c(=O)c2nc(C3CCCC3)[nH]c2n(CCc2ccc(NC(=O)C(C)C)cc2)c1=O,Acquisition time,[1],9 s
same,Retention time,[2],88.6 s
same,Retention time,[3],9.4 s
same,Acquisition time,[4],33.3 s
same,Ki,[5],16 nM
same,Acquisition time,[6],6 s
same,Acquisition time,[7],34.4 s
same,Acquisition time,[8],6.6 s
same,Retention time,[9],20 s
same,Retention time,[10],94.7 s
same,Retention time,[11],65.4 s
same,Acquisition time,[12],16 s
same,Retention time,[13],171 s
same,Ki,[14],> 100000 nM
same,Acquisition time,[15],10.1 s
same,Retention time,[16],18.6 s
same,Retention time,[17],19.3 s
same,Acquisition time,[18],29.3 s
same,Acquisition time,[19],11.9 s
same,Retention time,[20],10.7 s
same,Retention time,[21],32.9 s
same,Acquisition time,[22],10.1 s
